Measured values published in PubChem BioAssay (NCI).
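1) Cells in 96-well plates. 2) Compound, 48 h, 5 concentrations. 3) Linear interpolation between surrounding doses. 4) Unreached endpoint = highest concentration. GI50: concentration for 50% inhibition of growth. TGI: total growth inhibition.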

How the values were obtained:
Test in all cases: NCI tumour cell line growth inhibition, 48 h
[1] = tested on: HCT-116 colon
[2] = tested on: U251 CNS
[3] = tested on: OVCAR-8 ovarian
[4] = tested on: NCI-H460 lung
[5] = tested on: SK-OV-3 ovarian
[6] = tested on: CAKI-1 renal
[7] = tested on: UACC-257 melanoma
[8] = tested on: OVCAR-5 ovarian
[9] = tested on: TK-10 renal
[10] = tested on: NCI-H23 lung

| SMILES | GI50 [1] | TGI [1] | GI50 [2] | TGI [2] | GI50 [3] | TGI [3] | GI50 [4] | TGI [4] | GI50 [5] | TGI [5] | GI50 [6] | TGI [6] | GI50 [7] | TGI [7] | GI50 [8] | TGI [8] | TGI [9] | TGI [10] | GI50 [9] | GI50 [10] |
| --- | --- | --- | --- | --- | --- | --- | --- | --- | --- | --- | --- | --- | --- | --- | --- | --- | --- | --- | --- | --- |
| O=C1C(=O)c2ccccc2C(O)=C1CC=C(Br)Br | 0.887 µM | > 100 µM | 0.976 µM | 52.7 µM | 2.14 µM | 66.8 µM | 0.524 µM | 13.3 µM | 10.5 µM | 59.8 µM | 3.38 µM | > 100 µM | 11 µM | 38.4 µM | 21.8 µM | > 100 µM |  |  |  |  |
| O=C(CO)CC(=O)C(=O)Nc1ccccc1 |  | > 100 µM |  | > 100 µM |  | > 100 µM |  | > 100 µM |  | > 100 µM |  |  |  | > 100 µM |  | > 100 µM | > 100 µM | > 100 µM |  |  |
| CCOc1ccccc1NC(=O)CC1SC(=Nc2ccc([N+](=O)[O-])cc2)NC1=O (stereo unspecified) |  | 29.3 µM |  | 28 µM |  | 51.4 µM |  | 51.1 µM |  |  |  |  |  | 46.1 µM |  | 78.7 µM | 70.2 µM | 35.2 µM |  |  |
| c1ccc2[nH]c(-c3ccc(NN=Nc4ccncc4)cc3)nc2c1 | 26.3 µM | > 100 µM | 27.2 µM | > 100 µM | 5.57 µM | > 100 µM | 2.46 µM | > 100 µM | > 100 µM | > 100 µM | 5.2 µM | > 100 µM | > 100 µM | > 100 µM | > 100 µM | > 100 µM | > 100 µM |  | 52.5 µM |  |
| C=C1C(=O)O[C@H]2[C@H]1CC/C(Cn1cc(-c3cc(C(F)(F)F)cc(C(F)(F)F)c3)nn1)=C\CC[C@@]1(C)O[C@@H]21 | 0.153 µM | 0.312 µM | 1.44 µM | 2.76 µM | 0.88 µM | 2.2 µM | 1.22 µM | 2.67 µM | 1.86 µM | 3.43 µM |  |  | 1.46 µM | 2.91 µM | 1.1 µM | 2.48 µM |  | 2.65 µM |  | 1.12 µM |
| COc1c(OC)c(OC)c2c(c1OC)c(=O)c1ccccc1n2C |  | > 100 µM |  | > 100 µM |  | > 100 µM |  |  |  | > 100 µM |  | > 100 µM |  | > 100 µM |  | > 100 µM | > 100 µM | > 100 µM |  |  |
| CC1(CO)OC(n2cc(C(=O)NC(=O)OCc3ccccc3)c(=O)[nH]c2=O)CC1O (stereo unspecified) |  | > 100 µM |  | > 100 µM |  | > 100 µM |  | > 100 µM |  | > 100 µM |  | > 100 µM |  | > 100 µM |  |  | > 100 µM | > 100 µM |  |  |
| CCc1c(C#N)c(S[C@@H](C(N)=O)c2ccccc2)nc(N(C)C)c1C#N | > 100 µM | > 100 µM | 11 µM | 42.1 µM | 3.96 µM | > 100 µM | > 100 µM | > 100 µM | 6.65 µM | > 100 µM | 12.9 µM | > 100 µM |  |  | > 100 µM | > 100 µM | 80.4 µM | > 100 µM | 21.9 µM | 21.1 µM |
| CCC/C(=N/N=C(N)N)c1ccc(NC(=O)c2cc3cc(OC)ccc3[nH]2)cc1 |  |  | 6.35 µM | 25.1 µM | 12.7 µM | 39.1 µM |  |  | 13.9 µM | 29.6 µM |  |  | 16.2 µM | 37.5 µM | 14.7 µM | 32.3 µM | 39 µM | 36.2 µM | 17.9 µM | 16 µM |
| O=C1C(Cl)=C(Nc2cccc(Cl)c2)C(=O)N1Cc1ccccc1Cl | 1.03 µM | 4.41 µM | 2.95 µM | 11.3 µM | 1.82 µM | 17.1 µM | 11.8 µM | 27 µM |  |  | 1.68 µM | 10.3 µM | 12.8 µM | 30.9 µM |  |  | 30 µM |  | 12.1 µM |  |
| Oc1ccccc1C=NCc1ccco1 |  | > 100 µM |  | > 100 µM |  | > 100 µM |  | > 100 µM |  | > 100 µM |  |  |  | > 100 µM |  | > 100 µM | > 100 µM | > 100 µM |  |  |
| CC(=O)[CH-]C(=O)c1ccccc1.CC(=O)[CH-]C(=O)c1ccccc1.CC1(C)C2CCC1(C)C([O-])C2.CC1(C)C2CCC1(C)C([O-])C2.[Ti+4] | 34.9 µM | > 100 µM | 40.4 µM | > 100 µM | 44.9 µM | > 100 µM | 47.7 µM | > 100 µM | 20.8 µM | 74.1 µM | 51.4 µM | > 100 µM | 88.7 µM | > 100 µM | > 100 µM | > 100 µM | > 100 µM |  | 53.5 µM |  |
| CCn1c(CN2CCN(Cc3ccccc3)CC2)nc2cc(NC(=O)c3cccs3)ccc21 | 14.4 µM | 38.7 µM | 13.6 µM | 32.3 µM | 20.1 µM | 55.9 µM | 18.7 µM | 42.5 µM | 25.7 µM | 71.6 µM | 18 µM | 63 µM |  |  | 17 µM | 63.3 µM | 70.4 µM | 57 µM | 24 µM | 19.9 µM |
